Measurements from the kinase profiling compilation of Christmann-Franck et al. (2016).

Assays:
Test in all cases: KINOMEscan competition binding
Conditions in all cases: compound 10.0 µM
CDK17 (human) = CDK17 (human) (UniProt Q00537)
RPS6KA1 KD1 (human) = RPS6KA1 KD1 (human) (UniProt Q15418)
EPHB2 (human) = EPHB2 (human) (UniProt P29323)
[1] = molecular target: JAK3 JH1 catalytic (human) (UniProt P52333)
BMPR1B (human) = BMPR1B (human) (UniProt O00238)
STK17A (human) = STK17A (human) (UniProt Q9UEE5)
Chain of STK17A (human) (Q9UEE5 whole entry, looked up): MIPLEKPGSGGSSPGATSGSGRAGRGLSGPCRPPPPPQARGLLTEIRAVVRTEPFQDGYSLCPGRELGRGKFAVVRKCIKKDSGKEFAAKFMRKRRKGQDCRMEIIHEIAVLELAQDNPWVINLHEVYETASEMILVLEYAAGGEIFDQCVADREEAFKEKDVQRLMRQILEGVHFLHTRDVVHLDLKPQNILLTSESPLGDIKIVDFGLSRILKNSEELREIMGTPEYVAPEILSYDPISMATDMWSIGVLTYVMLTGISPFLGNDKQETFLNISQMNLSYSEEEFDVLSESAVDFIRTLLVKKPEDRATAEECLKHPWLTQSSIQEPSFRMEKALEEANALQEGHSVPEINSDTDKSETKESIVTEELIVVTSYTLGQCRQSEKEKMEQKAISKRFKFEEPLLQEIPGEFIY

LATS1 (human) = LATS1 (human) (UniProt O95835)
MST1R (human) = MST1R (human) (UniProt Q04912)
PAK2 (human) = PAK2 (human) (UniProt Q13177)
Chain of PAK2 (human) (Q13177 whole entry, looked up): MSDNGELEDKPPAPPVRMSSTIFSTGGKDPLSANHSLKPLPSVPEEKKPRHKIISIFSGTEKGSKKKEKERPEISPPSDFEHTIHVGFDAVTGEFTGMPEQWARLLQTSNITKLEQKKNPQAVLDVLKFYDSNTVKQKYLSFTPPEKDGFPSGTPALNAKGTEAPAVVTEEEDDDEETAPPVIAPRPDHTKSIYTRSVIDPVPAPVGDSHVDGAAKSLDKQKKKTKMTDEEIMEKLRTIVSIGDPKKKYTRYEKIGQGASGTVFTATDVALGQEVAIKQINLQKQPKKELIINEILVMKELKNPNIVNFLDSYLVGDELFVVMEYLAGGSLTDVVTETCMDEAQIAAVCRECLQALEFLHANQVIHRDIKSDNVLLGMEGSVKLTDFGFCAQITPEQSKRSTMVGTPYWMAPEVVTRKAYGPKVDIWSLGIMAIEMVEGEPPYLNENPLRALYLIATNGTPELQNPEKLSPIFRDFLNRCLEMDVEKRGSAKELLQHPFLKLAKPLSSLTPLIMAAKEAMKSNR

SGK110 (human) = SGK110 (human) (UniProt P0C264)
[2] = molecular target: JAK1 JH2 pseudokinase (human) (UniProt P23458)
Chain of JAK1 JH2 pseudokinase (human) (P23458 whole entry, looked up): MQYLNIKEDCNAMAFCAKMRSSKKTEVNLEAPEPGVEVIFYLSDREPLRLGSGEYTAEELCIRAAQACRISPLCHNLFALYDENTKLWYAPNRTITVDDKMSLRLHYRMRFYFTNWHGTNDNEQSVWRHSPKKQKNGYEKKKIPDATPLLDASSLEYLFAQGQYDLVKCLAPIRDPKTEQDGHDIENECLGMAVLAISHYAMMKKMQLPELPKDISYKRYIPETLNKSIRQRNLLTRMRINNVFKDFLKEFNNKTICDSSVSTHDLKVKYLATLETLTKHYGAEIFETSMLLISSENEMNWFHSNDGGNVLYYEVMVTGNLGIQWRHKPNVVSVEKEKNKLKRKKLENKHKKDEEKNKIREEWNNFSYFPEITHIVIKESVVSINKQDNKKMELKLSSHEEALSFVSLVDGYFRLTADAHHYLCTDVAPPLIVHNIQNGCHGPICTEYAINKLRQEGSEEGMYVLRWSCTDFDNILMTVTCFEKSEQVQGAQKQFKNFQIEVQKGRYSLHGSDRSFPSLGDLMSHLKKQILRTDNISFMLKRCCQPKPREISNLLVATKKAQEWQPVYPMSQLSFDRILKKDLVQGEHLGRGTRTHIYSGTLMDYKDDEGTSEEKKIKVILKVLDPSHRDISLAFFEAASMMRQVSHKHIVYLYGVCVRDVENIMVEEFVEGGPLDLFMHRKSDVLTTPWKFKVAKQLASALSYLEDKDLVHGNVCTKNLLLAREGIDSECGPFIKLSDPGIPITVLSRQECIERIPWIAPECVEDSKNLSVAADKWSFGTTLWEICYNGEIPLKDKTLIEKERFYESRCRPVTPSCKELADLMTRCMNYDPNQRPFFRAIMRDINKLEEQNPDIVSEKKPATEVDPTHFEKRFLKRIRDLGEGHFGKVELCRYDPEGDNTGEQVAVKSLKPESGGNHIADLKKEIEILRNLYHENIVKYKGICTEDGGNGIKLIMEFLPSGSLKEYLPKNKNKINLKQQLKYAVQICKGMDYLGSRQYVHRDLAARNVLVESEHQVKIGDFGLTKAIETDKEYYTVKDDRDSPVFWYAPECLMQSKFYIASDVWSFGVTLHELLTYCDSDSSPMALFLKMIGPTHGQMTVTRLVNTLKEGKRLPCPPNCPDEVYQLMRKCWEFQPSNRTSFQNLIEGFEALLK

EPHB3 (human) = EPHB3 (human) (UniProt P54753)
AAK1 (human) = AAK1 (human) (UniProt Q2M2I8)
FES (human) = FES (human) (UniProt P07332)
CAMK2D (human) = CAMK2D (human) (UniProt Q13557)
DMPK (human) = DMPK (human) (UniProt Q09013)
Chain of DMPK (human) (Q09013 whole entry, looked up): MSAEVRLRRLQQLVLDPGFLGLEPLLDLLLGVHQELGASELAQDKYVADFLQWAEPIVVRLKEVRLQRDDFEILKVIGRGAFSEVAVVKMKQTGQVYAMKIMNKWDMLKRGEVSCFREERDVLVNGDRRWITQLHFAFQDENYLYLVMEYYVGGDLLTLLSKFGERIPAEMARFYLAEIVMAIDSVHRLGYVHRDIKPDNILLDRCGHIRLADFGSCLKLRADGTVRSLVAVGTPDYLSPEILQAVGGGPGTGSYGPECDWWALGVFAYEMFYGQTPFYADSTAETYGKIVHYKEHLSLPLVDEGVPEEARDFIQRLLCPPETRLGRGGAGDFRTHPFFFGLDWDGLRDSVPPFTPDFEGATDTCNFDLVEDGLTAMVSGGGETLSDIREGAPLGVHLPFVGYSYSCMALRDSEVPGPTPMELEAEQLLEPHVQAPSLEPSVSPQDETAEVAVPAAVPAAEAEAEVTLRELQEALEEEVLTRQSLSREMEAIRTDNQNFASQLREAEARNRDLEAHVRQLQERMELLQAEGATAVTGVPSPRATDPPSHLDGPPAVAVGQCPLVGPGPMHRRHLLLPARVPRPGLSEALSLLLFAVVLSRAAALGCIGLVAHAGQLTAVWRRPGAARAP

STK16 (human) = STK16 (human) (UniProt O75716)
FLT4 (human) = FLT4 (human) (UniProt P35916)
MAP3K11 (human) = MAP3K11 (human) (UniProt Q16584)
STK32C (human) = STK32C (human) (UniProt Q86UX6)
NEK2 (human) = NEK2 (human) (UniProt P51955)
CLK1 (human) = CLK1 (human) (UniProt P49759)
CSNK1G1 (human) = CSNK1G1 (human) (UniProt Q9HCP0)
Chain of CSNK1G1 (human) (Q9HCP0 whole entry, looked up): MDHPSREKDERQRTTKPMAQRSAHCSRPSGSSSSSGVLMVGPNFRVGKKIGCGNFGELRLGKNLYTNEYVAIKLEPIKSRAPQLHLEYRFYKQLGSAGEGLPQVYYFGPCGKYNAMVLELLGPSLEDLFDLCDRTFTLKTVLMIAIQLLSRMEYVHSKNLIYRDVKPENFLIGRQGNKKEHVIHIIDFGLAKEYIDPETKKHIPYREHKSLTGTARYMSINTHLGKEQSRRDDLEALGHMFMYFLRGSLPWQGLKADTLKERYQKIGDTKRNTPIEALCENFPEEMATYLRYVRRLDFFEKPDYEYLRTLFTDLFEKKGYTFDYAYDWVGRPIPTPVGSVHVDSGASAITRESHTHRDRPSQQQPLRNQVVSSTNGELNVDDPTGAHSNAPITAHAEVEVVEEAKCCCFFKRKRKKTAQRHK

[3] = tested on: EIF2AK4 KD2 (human), Q9P2K8 [S808G]
PKN1 (human) = PKN1 (human) (UniProt Q16512)
MAPK1 (human) = MAPK1 (human) (UniProt P28482)
[4] = tested on: FLT3 (human), P36888 [ITD]
AKT3 (human) = AKT3 (human) (UniProt Q9Y243)
SRPK1 (human) = SRPK1 (human) (UniProt Q96SB4)
ANKK1 (human) = ANKK1 (human) (UniProt Q8NFD2)
STK17B (human) = STK17B (human) (UniProt O94768)
NEK1 (human) = NEK1 (human) (UniProt Q96PY6)
PRKCE (human) = PRKCE (human) (UniProt Q02156)
CAMKK2 (human) = CAMKK2 (human) (UniProt Q96RR4)
Chain of CAMKK2 (human) (Q96RR4 whole entry, looked up): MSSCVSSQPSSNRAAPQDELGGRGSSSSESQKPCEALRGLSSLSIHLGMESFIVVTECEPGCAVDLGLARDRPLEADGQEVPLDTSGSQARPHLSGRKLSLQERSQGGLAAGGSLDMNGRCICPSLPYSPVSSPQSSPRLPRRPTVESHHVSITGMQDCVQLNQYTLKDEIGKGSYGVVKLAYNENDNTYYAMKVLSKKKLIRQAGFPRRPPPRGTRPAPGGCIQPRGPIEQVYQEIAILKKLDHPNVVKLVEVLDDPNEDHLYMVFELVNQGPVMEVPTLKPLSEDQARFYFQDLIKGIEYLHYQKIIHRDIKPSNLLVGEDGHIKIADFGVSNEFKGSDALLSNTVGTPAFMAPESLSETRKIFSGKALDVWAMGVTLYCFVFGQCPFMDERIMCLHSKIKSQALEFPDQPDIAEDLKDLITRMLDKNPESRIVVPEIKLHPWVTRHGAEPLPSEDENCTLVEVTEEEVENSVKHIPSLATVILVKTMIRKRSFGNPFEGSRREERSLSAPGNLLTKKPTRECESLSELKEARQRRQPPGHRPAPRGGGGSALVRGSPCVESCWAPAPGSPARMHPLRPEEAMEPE

MARK1 (human) = MARK1 (human) (UniProt Q9P0L2)
PRKCD (human) = PRKCD (human) (UniProt Q05655)
CHEK1 (human) = CHEK1 (human) (UniProt O14757)
Chain of CHEK1 (human) (O14757 whole entry, looked up): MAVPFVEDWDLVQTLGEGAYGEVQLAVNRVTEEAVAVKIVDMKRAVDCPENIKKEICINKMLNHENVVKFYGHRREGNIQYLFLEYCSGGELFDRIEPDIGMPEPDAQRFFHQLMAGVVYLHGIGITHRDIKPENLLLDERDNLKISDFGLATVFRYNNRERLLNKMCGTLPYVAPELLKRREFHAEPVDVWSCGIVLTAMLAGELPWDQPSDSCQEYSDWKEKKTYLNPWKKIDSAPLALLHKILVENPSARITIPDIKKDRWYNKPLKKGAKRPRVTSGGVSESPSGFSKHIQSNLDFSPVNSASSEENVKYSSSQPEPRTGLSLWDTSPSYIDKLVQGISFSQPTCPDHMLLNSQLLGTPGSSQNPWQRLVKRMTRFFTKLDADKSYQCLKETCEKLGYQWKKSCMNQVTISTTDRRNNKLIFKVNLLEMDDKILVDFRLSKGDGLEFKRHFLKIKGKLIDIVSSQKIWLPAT

CDC2L2 (human) = CDC2L2 (human) (UniProt Q9UQ88)
Chain of CDC2L2 (human) (Q9UQ88 whole entry, looked up): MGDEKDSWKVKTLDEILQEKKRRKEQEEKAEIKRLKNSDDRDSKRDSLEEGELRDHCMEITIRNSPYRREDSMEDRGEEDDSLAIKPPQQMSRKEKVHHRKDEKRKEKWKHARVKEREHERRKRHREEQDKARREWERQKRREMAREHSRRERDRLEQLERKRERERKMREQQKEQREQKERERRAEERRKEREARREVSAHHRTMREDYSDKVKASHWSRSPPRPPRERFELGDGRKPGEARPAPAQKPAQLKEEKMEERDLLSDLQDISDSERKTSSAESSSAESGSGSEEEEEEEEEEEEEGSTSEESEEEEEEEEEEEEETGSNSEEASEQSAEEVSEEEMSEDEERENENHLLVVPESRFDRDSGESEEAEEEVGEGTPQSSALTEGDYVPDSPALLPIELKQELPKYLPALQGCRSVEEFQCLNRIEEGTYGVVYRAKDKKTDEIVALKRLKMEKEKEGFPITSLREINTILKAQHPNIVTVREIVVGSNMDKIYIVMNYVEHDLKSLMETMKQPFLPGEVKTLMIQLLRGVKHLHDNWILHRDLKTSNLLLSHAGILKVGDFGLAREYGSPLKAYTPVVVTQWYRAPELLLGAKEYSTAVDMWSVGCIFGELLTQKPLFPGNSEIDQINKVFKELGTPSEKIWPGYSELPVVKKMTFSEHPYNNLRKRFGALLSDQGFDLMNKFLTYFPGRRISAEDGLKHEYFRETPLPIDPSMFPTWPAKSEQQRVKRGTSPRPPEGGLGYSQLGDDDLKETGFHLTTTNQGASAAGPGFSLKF

LATS2 (human) = LATS2 (human) (UniProt Q9NRM7)
BLK (human) = BLK (human) (UniProt P51451)

Compound: Cc1ccc(NC(=O)c2cccc(C(C)(C)C#N)c2)cc1Nc1ccc2ncn(C)c(=O)c2c1
- kinase still bound, per cent of control (CDK17 (human)): 100%
- kinase still bound, per cent of control (RPS6KA1 KD1 (human)): 85%
- kinase still bound, per cent of control (EPHB2 (human)): 0%
- kinase still bound, per cent of control [1]: 87%
- kinase still bound, per cent of control (BMPR1B (human)): 82%
- kinase still bound, per cent of control (STK17A (human)): 100%
- kinase still bound, per cent of control (LATS1 (human)): 100%
- kinase still bound, per cent of control (MST1R (human)): 100%
- kinase still bound, per cent of control (PAK2 (human)): 100%
- kinase still bound, per cent of control (SGK110 (human)): 100%
- kinase still bound, per cent of control [2]: 82%
- kinase still bound, per cent of control (EPHB3 (human)): 0%
- kinase still bound, per cent of control (AAK1 (human)): 100%
- kinase still bound, per cent of control (FES (human)): 43%
- kinase still bound, per cent of control (CAMK2D (human)): 100%
- kinase still bound, per cent of control (DMPK (human)): 90%
- kinase still bound, per cent of control (STK16 (human)): 83%
- kinase still bound, per cent of control (FLT4 (human)): 0.15%
- kinase still bound, per cent of control (MAP3K11 (human)): 91%
- kinase still bound, per cent of control (STK32C (human)): 100%
- kinase still bound, per cent of control (NEK2 (human)): 100%
- kinase still bound, per cent of control (CLK1 (human)): 100%
- kinase still bound, per cent of control (CSNK1G1 (human)): 88%
- kinase still bound, per cent of control [3]: 85%
- kinase still bound, per cent of control (PKN1 (human)): 100%
- kinase still bound, per cent of control (MAPK1 (human)): 100%
- kinase still bound, per cent of control [4]: 78%
- kinase still bound, per cent of control (AKT3 (human)): 100%
- kinase still bound, per cent of control (SRPK1 (human)): 100%
- kinase still bound, per cent of control (ANKK1 (human)): 100%
- kinase still bound, per cent of control (STK17B (human)): 100%
- kinase still bound, per cent of control (NEK1 (human)): 100%
- kinase still bound, per cent of control (PRKCE (human)): 100%
- kinase still bound, per cent of control (CAMKK2 (human)): 28%
- kinase still bound, per cent of control (MARK1 (human)): 100%
- kinase still bound, per cent of control (PRKCD (human)): 89%
- kinase still bound, per cent of control (CHEK1 (human)): 84%
- kinase still bound, per cent of control (CDC2L2 (human)): 5.4%
- kinase still bound, per cent of control (LATS2 (human)): 99%
- kinase still bound, per cent of control (BLK (human)): 1%

Compound: C[C@@H](Oc1cc(-n2cnc3ccc(CN4CCN(C)CC4)cc32)sc1C(N)=O)c1ccccc1C(F)(F)F
- kinase still bound, per cent of control (CDK17 (human)): 90%
- kinase still bound, per cent of control (RPS6KA1 KD1 (human)): 29%
- kinase still bound, per cent of control (EPHB2 (human)): 99%
- kinase still bound, per cent of control [1]: 10%
- kinase still bound, per cent of control (BMPR1B (human)): 100%
- kinase still bound, per cent of control (STK17A (human)): 100%
- kinase still bound, per cent of control (LATS1 (human)): 100%
- kinase still bound, per cent of control (MST1R (human)): 100%
- kinase still bound, per cent of control (PAK2 (human)): 38%
- kinase still bound, per cent of control (SGK110 (human)): 100%
- kinase still bound, per cent of control [2]: 92%
- kinase still bound, per cent of control (EPHB3 (human)): 100%
- kinase still bound, per cent of control (AAK1 (human)): 40%
- kinase still bound, per cent of control (FES (human)): 88%
- kinase still bound, per cent of control (CAMK2D (human)): 7.3%
- kinase still bound, per cent of control (DMPK (human)): 63%
- kinase still bound, per cent of control (STK16 (human)): 65%
- kinase still bound, per cent of control (FLT4 (human)): 63%
- kinase still bound, per cent of control (MAP3K11 (human)): 75%
- kinase still bound, per cent of control (STK32C (human)): 100%
- kinase still bound, per cent of control (NEK2 (human)): 2.4%
- kinase still bound, per cent of control (CLK1 (human)): 36%
- kinase still bound, per cent of control (CSNK1G1 (human)): 100%
- kinase still bound, per cent of control [3]: 29%
- kinase still bound, per cent of control (PKN1 (human)): 46%
- kinase still bound, per cent of control (MAPK1 (human)): 100%
- kinase still bound, per cent of control [4]: 31%
- kinase still bound, per cent of control (AKT3 (human)): 100%
- kinase still bound, per cent of control (SRPK1 (human)): 46%
- kinase still bound, per cent of control (ANKK1 (human)): 26%
- kinase still bound, per cent of control (STK17B (human)): 100%
- kinase still bound, per cent of control (NEK1 (human)): 41%
- kinase still bound, per cent of control (PRKCE (human)): 3.9%
- kinase still bound, per cent of control (CAMKK2 (human)): 66%
- kinase still bound, per cent of control (MARK1 (human)): 100%
- kinase still bound, per cent of control (PRKCD (human)): 22%
- kinase still bound, per cent of control (CHEK1 (human)): 100%
- kinase still bound, per cent of control (CDC2L2 (human)): 100%
- kinase still bound, per cent of control (LATS2 (human)): 42%
- kinase still bound, per cent of control (BLK (human)): 100%
